Assay results published in ChEMBL document CHEMBL1201862, “PubChem BioAssay data set” (2004).
Values belong to the molecule of their own block, whether it stands above or below them. Activity calls are given as the source filed them.

What was measured:
[1] = P. falciparum late gametocyte killing, dose response, luminescence (AID 1117278); type: functional, cell-based;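 further: gametocytes exposed to compound for 24 hours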
[2] = Jurkat T cell cytotoxicity, dose response, cytotoxicity control for P. falciparum gametocyte viability project, luminescence (AID 1117277); type: functional, cell-based;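 further: potency reflects loss of cellular ATP meaning fewer viable cells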
[3] = molecular target: T1, Oxysterols receptor LXR-beta (Homo sapiens, UniProt P55055); assay: LXR agonists, Gal4 luciferase reporter, dose response, counter-screen for ssDAF-12 agonist project, cell-based, luminescence, HEK293, S. stercoralis campaign (AID 720737); type: functional; settings: read-out: IC50 (the source's name)
T1 sequence (P55055 whole entry): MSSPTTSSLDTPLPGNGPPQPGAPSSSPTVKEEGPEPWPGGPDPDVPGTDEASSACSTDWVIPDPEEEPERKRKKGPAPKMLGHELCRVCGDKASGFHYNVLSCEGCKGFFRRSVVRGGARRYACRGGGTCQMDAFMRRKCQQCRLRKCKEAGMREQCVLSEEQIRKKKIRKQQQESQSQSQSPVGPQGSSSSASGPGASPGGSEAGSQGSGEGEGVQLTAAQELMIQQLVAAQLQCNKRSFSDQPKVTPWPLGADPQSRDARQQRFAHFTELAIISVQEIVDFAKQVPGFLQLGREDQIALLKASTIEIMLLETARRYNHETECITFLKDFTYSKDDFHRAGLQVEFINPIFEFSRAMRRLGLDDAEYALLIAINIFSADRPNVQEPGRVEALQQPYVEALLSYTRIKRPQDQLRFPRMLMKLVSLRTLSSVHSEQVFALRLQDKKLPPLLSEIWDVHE

[4] = Luminescence-based cell-based high throughput dose response assay to identify activators of the DAF-12 from the parasite S. stercoralis (ssDAF-12).; type: functional
[5] = cytotoxicity in HEK-293T cells, dose response, cytotoxicity control for BCR NF-kB inhibitor project, luminescence, B-cell screen hits (AID 489021); type: functional, cell-based;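 further: HEK-293T cells carrying an NF-kB luciferase reporter; cells exposed to compound for about 14 hours before viability readout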
[6] = inhibitors of Vif binding to APOBEC3G peptide, primary screen, biochemical, TR-FRET, GST-Vif 1-94, biotin-A3G peptide, dose response retest (AID 1117319); type: functional;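 further: TR-FRET signal of purified GST-Vif binding a biotinylated A3G peptide; inhibitors lower the FRET signal by blocking Vif and A3G binding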
[7] = molecular target: Protein Tat (Human immunodeficiency virus type 1 group M subtype B (isolate HXB2)(HIV-1), UniProt P04608); type: functional;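 further: tat binding to TAR RNA read out by fluorescence polarization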
Sequence of Protein Tat (P04608 whole entry): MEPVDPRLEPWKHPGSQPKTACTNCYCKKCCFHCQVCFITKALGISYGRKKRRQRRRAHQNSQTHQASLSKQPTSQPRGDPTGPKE

[8] = molecular target: Heat shock protein HSP 90-alpha (Homo sapiens, UniProt P07900); type: functional, organism-based
[9] = Luminescence Cell-Based Dose Retest to Confirm Inhibitors of Cancer Stem Cells. [Related pubchem assays (depositor defined):AID2717, AID2721]; type: functional; settings: Homo sapiens
[10] = molecular target: Neurotensin receptor type 1 (Homo sapiens, UniProt P30989); type: functional;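 further: Image-based confirmatory dose-response assay measuring agonist activity at NTR1; NTR1-expressing U2OS osteosarcoma cells imaged for beta-arrestin GFP spot formation; agonist potency where compounds increase beta-arrestin recruitment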
Sequence of Neurotensin receptor type 1 (P30989 whole entry): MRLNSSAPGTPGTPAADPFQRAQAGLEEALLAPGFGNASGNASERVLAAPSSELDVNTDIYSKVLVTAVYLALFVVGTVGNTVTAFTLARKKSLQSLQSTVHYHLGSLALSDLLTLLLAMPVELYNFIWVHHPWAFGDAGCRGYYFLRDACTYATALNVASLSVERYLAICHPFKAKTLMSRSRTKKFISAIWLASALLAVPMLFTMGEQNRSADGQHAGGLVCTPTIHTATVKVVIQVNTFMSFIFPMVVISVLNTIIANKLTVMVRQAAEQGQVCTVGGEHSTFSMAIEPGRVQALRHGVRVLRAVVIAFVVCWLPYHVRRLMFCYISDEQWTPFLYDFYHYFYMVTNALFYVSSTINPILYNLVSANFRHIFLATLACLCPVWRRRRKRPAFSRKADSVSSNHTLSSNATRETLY

[11] = cytotoxicity in HMLE control line with eGFP shRNA, dose response, counter-screen for HMLE_sh_ECad selective toxicity project, cell-based, HMLE_sh_eGFP, luminescence (AID 463074); type: functional, Homo sapiens;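 further: HMLE human mammary epithelial cells expressing control shRNA against eGFP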
[12] = molecular target: T2, Mannose-6-phosphate isomerase (Homo sapiens, UniProt P34949); assay: inhibitors of human PMI, primary screen, biochemical, fluorescence intensity, coupled assay (AID 1209)
T2 sequence (P34949 whole entry): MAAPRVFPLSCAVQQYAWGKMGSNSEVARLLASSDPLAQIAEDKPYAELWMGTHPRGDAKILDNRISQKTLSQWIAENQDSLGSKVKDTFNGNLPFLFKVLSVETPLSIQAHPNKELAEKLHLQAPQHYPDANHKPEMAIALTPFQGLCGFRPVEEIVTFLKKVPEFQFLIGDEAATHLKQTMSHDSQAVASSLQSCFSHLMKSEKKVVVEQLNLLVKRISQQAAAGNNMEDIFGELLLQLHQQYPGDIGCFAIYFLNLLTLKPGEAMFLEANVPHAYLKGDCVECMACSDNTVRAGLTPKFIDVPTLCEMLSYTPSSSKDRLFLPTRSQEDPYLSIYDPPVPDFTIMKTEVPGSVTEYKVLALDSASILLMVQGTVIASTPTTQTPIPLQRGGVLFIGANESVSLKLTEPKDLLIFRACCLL

[13] = system: INS1; assay: beta cell apoptosis inhibitors, cytokine rescue, dose response, luminescence, retest (AID 449756); type: functional, cell-based; settings: Rattus norvegicus;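 further: cell death triggered by IL-1 beta plus TNF-alpha plus IFN-gamma mixture; protective hits raise ATP signal compared with cytokine alone wells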
[14] = molecular target: Lysosomal acid glucosylceramidase (Homo sapiens, UniProt P04062); assay: Dose response cell-based high throughput screening assay to identify enhancers of beta-glucosidase activity. [Related pubchem assays: 784 ]; type: functional
Sequence of Lysosomal acid glucosylceramidase (P04062 whole entry): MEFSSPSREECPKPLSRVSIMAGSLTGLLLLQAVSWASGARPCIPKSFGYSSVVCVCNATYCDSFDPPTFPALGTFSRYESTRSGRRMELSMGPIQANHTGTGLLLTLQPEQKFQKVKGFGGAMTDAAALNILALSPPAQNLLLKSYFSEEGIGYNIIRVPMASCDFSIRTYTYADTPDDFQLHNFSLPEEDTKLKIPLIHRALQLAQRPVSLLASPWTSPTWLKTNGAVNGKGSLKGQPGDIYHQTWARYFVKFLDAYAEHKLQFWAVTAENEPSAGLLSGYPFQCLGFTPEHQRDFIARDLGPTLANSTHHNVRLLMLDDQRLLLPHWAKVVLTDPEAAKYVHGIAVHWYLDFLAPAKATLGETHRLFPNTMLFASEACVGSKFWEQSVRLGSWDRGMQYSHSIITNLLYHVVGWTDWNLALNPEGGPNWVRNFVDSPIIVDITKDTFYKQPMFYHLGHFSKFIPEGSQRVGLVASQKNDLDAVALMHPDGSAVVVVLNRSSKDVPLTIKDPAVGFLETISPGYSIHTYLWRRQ

[15] = Luminescence Cell-Based Dose Confirmation HTS to Identify Inhibitors of Polyadenylation.; type: functional
[16] = molecular target: T3, Estrogen receptor beta (Homo sapiens, UniProt Q92731);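 further: recombinant ER-beta bound to coactivator SRC1 peptide in presence of estradiol agonist; inhibitors block coactivator peptide binding and lower the FRET signal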
T3 sequence (Q92731 whole entry): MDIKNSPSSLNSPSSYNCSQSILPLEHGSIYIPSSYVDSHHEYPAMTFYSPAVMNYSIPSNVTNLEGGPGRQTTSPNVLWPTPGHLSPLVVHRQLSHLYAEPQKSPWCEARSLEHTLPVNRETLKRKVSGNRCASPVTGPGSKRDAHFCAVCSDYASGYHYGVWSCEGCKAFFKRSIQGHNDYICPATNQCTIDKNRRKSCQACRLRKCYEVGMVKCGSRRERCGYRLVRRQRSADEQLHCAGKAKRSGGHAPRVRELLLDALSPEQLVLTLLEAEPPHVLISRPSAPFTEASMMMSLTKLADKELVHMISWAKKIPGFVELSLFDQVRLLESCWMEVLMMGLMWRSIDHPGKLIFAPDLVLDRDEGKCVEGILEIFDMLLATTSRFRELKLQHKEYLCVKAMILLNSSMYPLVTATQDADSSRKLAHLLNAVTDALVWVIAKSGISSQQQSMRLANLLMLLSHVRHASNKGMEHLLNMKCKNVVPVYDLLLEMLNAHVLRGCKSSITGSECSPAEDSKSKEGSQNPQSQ

[17] = molecular target: T3, Estrogen receptor beta; assay: ERβ–SRC-3 coactivator interaction inhibitors, confirmation, orthogonal assay, biochemical, ELISA, streptavidin-HRP readout (AID 1060)
[18] = molecular target: DNA dC->dU-editing enzyme APOBEC-3G (Homo sapiens, UniProt Q9HC16); type: functional;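 further: Dose-response counterscreen measuring inhibition of APOBEC3G DNA deaminase activity, run while confirming APOBEC3A inhibitors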
Sequence of DNA dC->dU-editing enzyme APOBEC-3G (Q9HC16 whole entry): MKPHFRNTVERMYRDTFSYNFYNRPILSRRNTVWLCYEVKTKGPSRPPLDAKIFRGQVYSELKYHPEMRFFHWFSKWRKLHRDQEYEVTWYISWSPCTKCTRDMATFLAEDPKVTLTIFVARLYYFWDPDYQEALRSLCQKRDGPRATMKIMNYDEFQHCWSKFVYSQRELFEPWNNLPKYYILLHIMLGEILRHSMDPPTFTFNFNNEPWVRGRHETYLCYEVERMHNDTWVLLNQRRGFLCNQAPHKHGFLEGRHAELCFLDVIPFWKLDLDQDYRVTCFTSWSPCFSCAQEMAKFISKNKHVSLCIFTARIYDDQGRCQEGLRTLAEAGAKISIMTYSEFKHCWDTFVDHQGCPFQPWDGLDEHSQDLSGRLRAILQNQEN

[19] = molecular target: DNA dC->dU-editing enzyme APOBEC-3A (Homo sapiens, UniProt P31941); assay: Dose Response confirmation of small molecule APOBEC3A DNA Deaminase Inhibitors via a fluorescence-based single-stranded DNA deaminase assay. [Related pubchem assays (depositor defined):AID493011, AID493024]; type: functional
Sequence of DNA dC->dU-editing enzyme APOBEC-3A (P31941 whole entry): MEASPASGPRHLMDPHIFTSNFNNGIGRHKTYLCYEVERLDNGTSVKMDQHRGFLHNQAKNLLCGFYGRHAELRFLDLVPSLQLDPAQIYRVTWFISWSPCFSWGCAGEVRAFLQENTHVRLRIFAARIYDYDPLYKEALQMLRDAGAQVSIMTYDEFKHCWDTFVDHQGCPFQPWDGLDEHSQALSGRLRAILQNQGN

[20] = Vero cell cytotoxicity, dose response, cytotoxicity control for Vif-APOBEC3G degradation inhibitor project, Vero cells (AID 1117358); type: functional; settings: Human immunodeficiency virus 1, Vero
[21] = molecular target: E3 ubiquitin-protein ligase Mdm2 (Homo sapiens, UniProt Q00987); assay: enhancers of MDM2-luciferase reporter signal, concentration-effect titration, project on inhibitors of MDM2 ubiquitin ligase, cellular assay, luminescent readout, 384-well plate format (AID 1394); type: functional;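 further: MDM2 E3 inhibitors raise luminescence so EC50 is for signal enhancement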
Sequence of E3 ubiquitin-protein ligase Mdm2 (Q00987 whole entry): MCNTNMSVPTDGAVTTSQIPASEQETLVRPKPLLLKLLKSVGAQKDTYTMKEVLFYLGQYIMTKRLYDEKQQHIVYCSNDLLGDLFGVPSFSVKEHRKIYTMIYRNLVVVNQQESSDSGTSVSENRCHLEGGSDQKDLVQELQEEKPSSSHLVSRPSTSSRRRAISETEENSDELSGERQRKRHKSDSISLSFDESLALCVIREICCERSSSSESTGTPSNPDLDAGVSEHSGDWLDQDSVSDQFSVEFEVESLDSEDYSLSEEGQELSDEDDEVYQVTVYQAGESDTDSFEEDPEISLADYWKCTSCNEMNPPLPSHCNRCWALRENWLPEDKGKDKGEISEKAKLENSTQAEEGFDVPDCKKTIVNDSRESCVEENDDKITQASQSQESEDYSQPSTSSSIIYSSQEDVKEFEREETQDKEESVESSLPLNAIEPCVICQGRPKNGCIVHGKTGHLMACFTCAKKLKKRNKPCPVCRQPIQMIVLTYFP

[22] = molecular target: Protein Rev (Human immunodeficiency virus type 1 group M subtype B (isolate HXB2)(HIV-1), UniProt P04618); assay: inhibitors of Rev binding to RRE RNA, dose response, biochemical, fluorescence polarization, HIV-1 (AID 434976); parameters: species or system Human immunodeficiency virus 1
Sequence of Protein Rev (P04618 whole entry): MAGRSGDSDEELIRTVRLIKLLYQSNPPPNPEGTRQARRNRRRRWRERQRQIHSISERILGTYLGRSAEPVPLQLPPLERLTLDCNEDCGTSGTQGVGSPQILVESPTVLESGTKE

[23] = molecular target: Female germline-specific tumor suppressor gld-1 (Caenorhabditis elegans, UniProt Q17339); assay: inhibitors of GLD-1 binding to TGE RNA, dose response, biochemical, fluorescence polarization, C. elegans (AID 2802);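 further: fluorescence polarization of labeled TGE RNA bound by purified gld-1 protein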
Sequence of Female germline-specific tumor suppressor gld-1 (Q17339 whole entry): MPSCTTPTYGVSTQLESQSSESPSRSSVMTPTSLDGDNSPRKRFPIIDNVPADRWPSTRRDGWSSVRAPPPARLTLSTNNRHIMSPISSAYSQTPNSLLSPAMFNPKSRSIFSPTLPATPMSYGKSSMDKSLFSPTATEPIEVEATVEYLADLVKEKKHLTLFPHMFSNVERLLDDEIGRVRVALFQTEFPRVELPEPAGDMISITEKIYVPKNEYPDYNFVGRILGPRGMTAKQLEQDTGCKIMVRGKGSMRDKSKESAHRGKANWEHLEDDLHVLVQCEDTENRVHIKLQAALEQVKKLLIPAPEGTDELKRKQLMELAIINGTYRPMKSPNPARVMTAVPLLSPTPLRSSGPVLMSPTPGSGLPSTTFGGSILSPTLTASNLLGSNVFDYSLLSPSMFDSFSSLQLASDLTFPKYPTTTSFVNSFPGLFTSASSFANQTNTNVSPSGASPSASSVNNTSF

[24] = molecular target: Polyadenylate-binding protein 1 (Homo sapiens, UniProt P11940); assay: PABP poly(A) RNA binding inhibitors, primary screen, biochemical, fluorescence polarization, uHTS (AID 2014)
Sequence of Polyadenylate-binding protein 1 (P11940 whole entry): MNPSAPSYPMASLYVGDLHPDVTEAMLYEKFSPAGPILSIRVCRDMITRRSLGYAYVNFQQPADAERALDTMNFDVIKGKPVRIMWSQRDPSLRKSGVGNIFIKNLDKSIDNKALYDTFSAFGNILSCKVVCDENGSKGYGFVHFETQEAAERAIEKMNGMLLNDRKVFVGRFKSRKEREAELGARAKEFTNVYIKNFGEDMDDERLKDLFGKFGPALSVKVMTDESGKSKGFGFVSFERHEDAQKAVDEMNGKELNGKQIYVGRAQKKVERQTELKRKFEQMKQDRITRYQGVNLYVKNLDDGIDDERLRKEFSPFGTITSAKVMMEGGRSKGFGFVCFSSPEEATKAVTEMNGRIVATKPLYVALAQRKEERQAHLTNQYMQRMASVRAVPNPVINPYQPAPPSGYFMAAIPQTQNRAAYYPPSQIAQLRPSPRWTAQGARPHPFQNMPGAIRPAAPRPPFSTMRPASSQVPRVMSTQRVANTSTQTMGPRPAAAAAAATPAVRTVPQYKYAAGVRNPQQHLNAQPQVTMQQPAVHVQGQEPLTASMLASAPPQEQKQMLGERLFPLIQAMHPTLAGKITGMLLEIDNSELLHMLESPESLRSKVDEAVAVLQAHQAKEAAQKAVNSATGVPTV

[25] = molecular target: Eukaryotic translation initiation factor 4H (Homo sapiens, UniProt Q15056); assay: human eIF4H binding inhibitors, primary screen, translation initiation inhibitor project, biochemical, uHTS, fluorescence polarization (AID 2012)
[26] = molecular target: T4, Alkaline phosphatase, tissue-nonspecific isozyme (Homo sapiens, UniProt P05186)
T4 sequence (P05186 whole entry): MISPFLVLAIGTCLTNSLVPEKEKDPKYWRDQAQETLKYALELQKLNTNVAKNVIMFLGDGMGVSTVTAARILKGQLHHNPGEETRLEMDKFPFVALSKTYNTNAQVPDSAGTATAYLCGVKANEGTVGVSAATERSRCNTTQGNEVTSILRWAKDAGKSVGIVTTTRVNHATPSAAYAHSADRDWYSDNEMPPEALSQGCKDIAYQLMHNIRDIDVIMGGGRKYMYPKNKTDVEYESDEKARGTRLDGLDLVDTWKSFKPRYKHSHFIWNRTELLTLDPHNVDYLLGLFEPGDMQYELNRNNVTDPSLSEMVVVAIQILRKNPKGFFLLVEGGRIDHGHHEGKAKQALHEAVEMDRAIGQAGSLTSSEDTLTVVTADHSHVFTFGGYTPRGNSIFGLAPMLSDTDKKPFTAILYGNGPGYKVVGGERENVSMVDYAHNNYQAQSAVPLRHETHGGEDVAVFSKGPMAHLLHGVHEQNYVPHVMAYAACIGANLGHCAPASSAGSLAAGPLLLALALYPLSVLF

[27] = molecular target: T2, Mannose-6-phosphate isomerase; assay: human PMI inhibitors, high substrate, primary screen, biochemical, fluorescence intensity, high mannose 6-phosphate (AID 1220)
[28] = cells; settings: HEK293
[29] = HeLa 2N DNA content increase, dose response, cell-based, IC50 (AID 1117349); type: functional
[30] = HeLa 4N DNA content increase, dose response, cell-based, IC50 (AID 1117351); type: functional

SMILES: CC1CCCN(CC(O)CN)C1 (stereo unspecified)
- IC50 [1]: > 109 µM (inactive)
- IC50 [2]: > 83.3 µM (inactive)

SMILES: Cc1c(C(=O)O/N=C(\N)c2ccccn2)cccc1[N+](=O)[O-]
- EC50 [3]: > 67.6 µM (inactive)
- IC50 [4]: > 67.6 µM (inactive)

SMILES: O=C(CCl)Nc1ccccc1Sc1ccccc1
- IC50 [5]: > 80 µM (inactive)

- IC50 [6]: > 100 µM (active)
SMILES: CCC(=O)N1CCc2cc(S(=O)(=O)NCCC(=O)NC3CCCc4ccccc43)ccc21 (stereo unspecified)

- IC50 [7]: > 100 µM (active)
SMILES: CCn1c(SCC(=O)Nc2cc(C)on2)nnc1-c1cccnc1

SMILES: CCOC(=O)[C@H]1[C@H]2COc3cc(OC)ccc3[C@@H]2N2C(=O)c3ccc(C)cc3NC(=O)[C@@]12C
- IC50 [1]: > 109 µM (inactive)
- IC50 [2]: > 83.3 µM (inactive)

SMILES: O=C(/C=C/c1ccc(Cl)c([N+](=O)[O-])c1)c1cccnc1
- AC50 [8]: 1.31 µM (active)
- AC50 [9]: 4.16 µM (active)
- EC50 [10]: > 40 µM (inactive)
- AC50 [11]: 56.4 µM (active)

SMILES: COc1ccc(C(=O)NC(=S)NNC(=O)c2cnccn2)cc1OC
- IC50 [12]: > 50 µM (not active)
- AC50 [13]: 1.03 µM (active)

- EC50 [14]: > 50 µM (not active)
SMILES: CC(=O)c1ccc(NC(=O)CSCCO)cc1

SMILES: CCOc1ccc(CCNC(=O)CN2C(=O)CCSc3ccccc32)cc1OCC
- EC50 [15]: > 120 µM (not active)

- IC50 [16]: 13.6 µM (active)
- IC50 [17]: > 50 µM (not active)
SMILES: O=C1NCCCC2c3cc(O)c4ccccc4c3OC12N1CCCCC1 (stereo unspecified)

SMILES: CCN(CC(=O)Nc1c(F)cccc1F)C(=O)c1cccc(-n2cccc2)c1
- IC50 [18]: 34.8 µM (active)
- IC50 [19]: 15.9 µM (active)
- IC50 [7]: > 100 µM (active)

SMILES: Cc1ccc(S(=O)(=O)N(C)CC(O)Cn2c3ccccc3c3ccccc32)cc1 (stereo unspecified)
- CC50 [20]: > 40 µM (active)

SMILES: Cc1cnc(NC(=O)Nc2ccc(Cl)cc2)s1
- IC50 [5]: > 80 µM (inactive)

SMILES: COc1cccc(-c2nc3ccccc3s2)c1O
- EC50 [3]: > 67.6 µM (inactive)
- IC50 [4]: > 67.6 µM (inactive)

SMILES: COc1ccc(CC(=O)OCn2nnc3ccccc3c2=O)cc1
- CC50 [20]: > 40 µM (active)

- IC50 [16]: 30.7 µM (not active)
- IC50 [17]: 0.0586 µM (not active)
SMILES: CCc1nc2oc3cc(OC)ccc3c(=O)c2c(=O)n1Cc1ccco1

- IC50 [6]: > 100 µM (active)
- EC50 [21]: 7.82 µM (active)
SMILES: Nc1cccc2c1C(=O)N(C(=O)/C=C/c1cccc(Br)c1)C2=O

SMILES: Cc1ccc(-c2nc(Nc3cccc(O)c3)c3ccccc3n2)cc1
- AC50 [9]: 5.05 µM (active)
- EC50 [10]: 30.6 µM (inactive)

SMILES: CC(CCC(C)C(C)(C)C)[C@@H]1CC[C@H]2C3C[C@H](OS(O)(=S)=S)[C@H]4C[C@H](OS(O)(=S)=S)[C@@H](OS(O)(=S)=S)C[C@]4(C)[C@H]3CC[C@]12C.Nc1ncc[nH]1 (stereo partly specified)
- IC50 [22]: 8.34 µM (active)
- IC50 [23]: 3.66 µM (active)

SMILES: COc1ccc2c(c1)c1nnc(SC)nc1n2C
- EC50 [15]: > 120 µM (not active)

SMILES: CCN1C(NCc2cc(OC)c(OC)c(OC)c2)=N[C@@H](c2ccccc2)[C@H](C(=O)OC)[C@H]1C
- IC50 [24]: 11.9 µM (active)
- IC50 [25]: > 100 µM (inactive)

- EC50 [26]: 66.5 µM (not active)
SMILES: CC(Oc1ccccc1)C(=O)NNC(=O)c1ccccn1 (stereo unspecified)

- EC50 [14]: > 50 µM (not active)
SMILES: O=C(NCC(=O)N(c1cccnc1)C(C(=O)NC1CCCC1)c1ccco1)c1cccs1 (stereo unspecified)

- IC50 [12]: > 50 µM (not active)
- IC50 [27]: > 50 µM (not active)
SMILES: Cc1ccc([N+](=O)[O-])cc1/N=C/C1=C(O)c2ccccc2CC1

SMILES: c1ccc2c(c1)ncn2CCOc1ccc2c(c1)CCC2
- AC50 [28]: 36.7 µM (active)

- IC50 [27]: > 50 µM (not active)
SMILES: N#Cc1c(N2CCN(c3ccc(F)cc3)CC2)nc(N)c2c(N)nc3c(c12)CC(=O)N3C1CC1

SMILES: CCOc1ccc2nc3cc(N)ccc3c(N)c2c1 [ETHACRIDINE LACTATE]
- IC50 [29]: > 10 µM (inactive)
- IC50 [30]: > 10 µM (inactive)
